Consider 22 compounds from ChEMBL document CHEMBL1147527, “Parallel synthesis of DAPT derivatives and their gamma-secretase-inhibitory activity” (Bioorg Med Chem Lett, 2004).

Active and inactive are the calls of the source. The rule behind the calls is not given here.

The first assay deals with T1, Gamma-secretase subunit PEN-2 (Homo sapiens, UniProt Q9NZ42). Kind of assay: Inhibitory activity against gamma-secretase at concentration of 10 uM; not active.
T1 sequence (Q9NZ42 whole entry): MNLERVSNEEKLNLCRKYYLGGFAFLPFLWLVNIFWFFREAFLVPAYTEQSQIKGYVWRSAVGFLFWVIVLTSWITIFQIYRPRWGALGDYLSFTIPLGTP
In the case of `C[C@H](NC(=O)Cc1ccccc1Br)C(=O)N[C@@H](Cc1ccccc1)C(=O)OC(C)(C)C`, the result was inactive. Still for that read-out and setting: with `C[C@H](NC(=O)Cc1cccc(Br)c1)C(=O)N[C@@H](Cc1ccccc1)C(=O)OC(C)(C)C` the entry was “inactive”; with `C[C@H](NC(=O)Cc1ccccc1O)C(=O)N[C@@H](Cc1ccccc1)C(=O)OC(C)(C)C`, “inactive”; with `C[C@H](NC(=O)Cc1cccc(O)c1)C(=O)N[C@@H](Cc1ccccc1)C(=O)OC(C)(C)C`, “inactive”.

With `C[C@H](NC(=O)Cc1ccc(O)cc1)C(=O)N[C@@H](Cc1ccccc1)C(=O)OC(C)(C)C`, the outcome was inactive. In the case of `C[C@H](NC(=O)Cc1ccc(Br)cc1)C(=O)N[C@@H](Cc1ccccc1)C(=O)OC(C)(C)C`, the outcome was inactive.

For another assay, the target named is T1, Gamma-secretase subunit PEN-2. Briefly: Inhibitory activity against gamma-secretase.
With `C[C@H](NC(=O)Cc1cc(F)cc(F)c1)C(=O)N[C@@H](Cc1ccccc1)C(=O)OC(C)(C)C`, inhibition was half-maximal at 50 nM (IC50).

The next assay shares this target. Kind of assay: (§1) Inhibitory activity against gamma-secretase relative to DAPT.
`CCCCNC(=O)[C@H](Cc1ccccc1)NC(=O)[C@H](C)NC(=O)Cc1cc(F)cc(F)c1`: the Relative activity was 0.3.

As for `C[C@H](NC(=O)Cc1cc(F)cc(F)c1)C(=O)N[C@@H](Cc1ccccc1)C(=O)NC(c1ccccc1)c1ccccc1`, the Relative activity was found to be 1. `C[C@H](NC(=O)Cc1cc(F)cc(F)c1)C(=O)N[C@@H](Cc1ccccc1)C(=O)OC(C)(C)C` displayed a Relative activity of 1. The same measure, in the same setting: with `C[C@H](NC(=O)Cc1cc(F)cc(F)c1)C(=O)N[C@@H](Cc1ccccc1)C(=O)NCc1ccccc1` the figure was 1.

The target in the next assay is Gamma-secretase (Homo sapiens) (UniProt Q96BI3+Q9NZ42+Q8WW43+P49768+Q92542+P49810). The assay is described as §1. In kind it is protein-complex assay.
In turn, `C[C@H](NC(=O)Cc1cc(F)cc(F)c1)C(=O)N[C@@H](Cc1ccccc1)C(=O)NCc1ccccc1Cl` showed a Relative activity of 0.1. Compound `C[C@H](NC(=O)Cc1cc(F)cc(F)c1)C(=O)N[C@@H](Cc1ccccc1)C(=O)NCc1cccc(Br)c1` registered a Relative activity of 0.1.

As for `C[C@H](NC(=O)Cc1cc(F)cc(F)c1)C(=O)N[C@@H](Cc1ccccc1)C(=O)NCc1ccc(C(=O)c2ccccc2)cc1`, the Relative activity amounted to 30. Same read-out and setting: the same measure for `COC(=O)c1ccc(CNC(=O)[C@H](Cc2ccccc2)NC(=O)[C@H](C)NC(=O)Cc2cc(F)cc(F)c2)cc1`: 0.6. Same read-out and setting: the same measure for `COc1ccccc1CNC(=O)[C@H](Cc1ccccc1)NC(=O)[C@H](C)NC(=O)Cc1cc(F)cc(F)c1`: 0.2; for `C[C@H](NC(=O)Cc1cc(F)cc(F)c1)C(=O)N[C@@H](Cc1ccccc1)C(=O)NCc1ccccc1Br`: 0.3. Same read-out and setting: the same measure for `COc1ccc(CNC(=O)[C@H](Cc2ccccc2)NC(=O)[C@H](C)NC(=O)Cc2cc(F)cc(F)c2)cc1`: 0.4; for `C[C@H](NC(=O)Cc1cc(F)cc(F)c1)C(=O)N[C@@H](Cc1ccccc1)C(=O)NCc1ccc(Br)cc1`: 0.6. `C[C@H](NC(=O)Cc1cc(F)cc(F)c1)C(=O)N[C@@H](Cc1ccccc1)C(=O)NCc1ccc(F)cc1` showed a Relative activity of 0.1. Still for that read-out and setting: the same measure for `COc1cccc(CNC(=O)[C@H](Cc2ccccc2)NC(=O)[C@H](C)NC(=O)Cc2cc(F)cc(F)c2)c1`: 0.1; for `C[C@H](NC(=O)Cc1cc(F)cc(F)c1)C(=O)N[C@@H](Cc1ccccc1)C(=O)NCc1cccc(Cl)c1`: 0.1; for `C[C@H](NC(=O)Cc1cc(F)cc(F)c1)C(=O)N[C@@H](Cc1ccccc1)C(=O)NCc1ccc(Cl)cc1`: 0.6.
